Assay results published in patent EP4545091A1 (priority 2023, dated 2025).
Counter-ions that a name gives are not always drawn. Bridges are numbered along the chain shown (N, C = ends).

Columns and labels:
[1] = tested on: SARS-CoV-2 Wuhan Hu-1 spike; assay: microbe, parasite or virus in culture; format: cell-based; settings: Severe acute respiratory syndrome coronavirus 2, Caco-2, 48 h, read-out: IC50, SARS-CoV-2 spike-driven entry
[2] = tested on: Influenza A virus (IAV) H1N1; settings: virus (IAV, 48 h)
[3] = tested on: SARS-CoV-2 BA.5; format: cell-based
[4] = tested on: SARS-CoV spike; settings: 48 h
[5] = tested on: VSV-G glycoprotein; format: cell-based
[6] = tested on: SARS-CoV-2 Omicron BA.5; format: cell-based
[7] = tested on: MERS-CoV spike; settings: 48 h
[8] = tested on: hCoV-NL63; settings: 48 h
[9] = tested on: SARS-CoV-2 Wuhan Hu-1 strain; settings: 48 h

| Compound | IC50 [1] | IC50 [2] | reduction of cumulative RNA copy production [3] | replication (RNA copies/ml in supernatants) [3] | IC50 [4] | entry of VSV-G bearing control pseudoparticles [5] | viral titers two days post infection [6] | IC50 [7] | IC50 [8] | IC50 [9] |
| --- | --- | --- | --- | --- | --- | --- | --- | --- | --- | --- |
| CN(C)C(=O)COC(=O)Cc1ccc(OC(=O)c2ccc(NC(=N)N)cc2)cc1 [Camostat mesylate] | 70 nM |  |  |  |  |  |  |  |  |  |
| VAACNLPIVRGPCRAFIQLWAFDAVKGKCVLFPYGGCQGNGNKFYSEKECREYCGVPGDGD (disulfide 4-54, 13-37, 29-50) [Trypstatin] |  | 222 nM | > 99.9% | almost entirely prevented replication | 31 nM | did not affect entry | strongly reduced viral titers | 78 nM | 190 nM | 26 nM |
